Results: paper PMC6057649, “Development of NanoLuc-PEST expressing Leishmania mexicana as a new drug discovery tool for axenic- and intramacrophage-based assays” (PLoS Neglected Tropical Diseases, 2018)
Read-outs that look alike come from different tables or passages of the source.

Tested on: NanoLuc-PEST expressing L. mexicana axenic amastigotes
Assay: microbe, parasite or virus in culture
Format: cell-based
Details: for Relative Bioluminescence (%) / viability at 2 µM / viability at 10 µM: 72 hours, relative to DMSO only control, n = 4; for EC50: hit compounds from the axenic amastigote screen, S3 Table, read-out: EC50, Axenic Amastigotes; for viability at 2 µM / viability at 10 µM: read-out: Relative Bioluminescence (%)
[1] = Leishmania mexicana, 2 µM compound
[2] = Leishmania mexicana, 10 µM compound

| SMILES | Relative Bioluminescence (%) (2 µM compound) | Relative Bioluminescence (%) (10 µM compound) | also measured |
| --- | --- | --- | --- |
| COc1cccc(-c2cc3c(Nc4cccnc4)nccc3[nH]2)c1 [MMV392832] | 70.60% | 51.50% | – |
| O=C(Nc1ccc(C(F)(F)F)c(C(F)(F)F)c1)c1cc(Cl)ccc1O [MMV687807] | 0.88% | 0.53% | EC50: 0.25 µM |
| c1cncc(NCc2ccc(-c3cc4ccncc4cc3OC3CCNCC3)s2)c1 [MMV023969] | 76.39% | 74.16% | – |
| COc1ccc(N(CCc2cccc(C)n2)C(=O)C2CCCCC2)cc1 [MMV675996] | 63.13% | 25.83% | – |
| Nc1ncc(Br)cc1-c1nc2cc(Cl)cnc2[nH]1 [MMV676358] | 93.00% | 64.12% | – |
| O=C(NCCN1CCCC1)c1cc(NCCN2CCOCC2)nc2ccc(Cl)cc12 [MMV634140] | 112.61% | 73.96% | – |
| FC(F)(F)c1cc(NCCc2ccccc2)nc(-c2ccccn2)n1 [MMV659010] | 95.95% | 88.01% | – |
| CC(C)(C)c1cnc(NC(=O)c2ccccc2O)s1 [MMV495543] | 70.90% | 27.02% | – |
| COc1ccc2nc(C)cc(OCC(=O)NCc3ccccc3)c2c1 [MMV687189] | 92.36% | 81.16% | – |
| Cc1ccc(S(=O)(=O)N2CCN(C(=O)c3cc(-c4ccccc4)n[nH]3)CC2)cc1 [MMV019742] | 69.14% | 102.67% | – |
| Cc1ccc2[nH]c(C3CCCNC3)c(-c3ccncc3)c2c1 (stereo not drawn) [MMV024311] | 109.56% | 88.36% | – |
| CS(=O)(=O)N1CCC(Cn2nc(Cc3cccc4ccccc34)c3c(N)ncnc32)CC1 [MMV676050] | 74.33% | 42.99% | – |
| CCCc1ccc(S(=O)(=O)Nc2ccc(CN3CCN(CC4CC4)CC3)cc2)cc1 [MMV688125] | 86.53% | 100.33% | – |
| CC[C@@H]([C@H](C)O)n1ncn(-c2ccc(N3CCN(c4ccc(OC[C@@H]5CO[C@@](Cn6cncn6)(c6ccc(F)cc6F)C5)cc4)CC3)cc2)c1=O [MMV688774, Posaconazole, reference compound] | – | – | viability at 2 µM [1]: 31.3%; viability at 10 µM [2]: -1.25% |
| c1cc(C2=NCCN2)cc(-c2cc(-c3ccc(C4=NCCN4)cc3)no2)c1 [MMV688361] | 96.04% | 78.94% | – |
| Oc1c(I)cc(I)c2cccnc12 [MMV002817, Iodoquinol, reference compound] | – | – | viability at 2 µM [1]: -1.49%; viability at 10 µM [2]: -1.46%; EC50 (Leishmania mexicana): 0.22 µM |
| Cc1ccc2nc(Cl)c(CNCc3cccs3)cc2c1 [MMV676439] | 83.45% | 95.86% | – |
| CC(C)C(C(=O)Nc1ccc(S(=O)(=O)N(C)C)cc1)c1ccc(Cl)cc1 (stereo not drawn) [MMV020391] | 89.71% | 17.09% | – |
| FC(F)(F)c1cccc(-c2nc3c(NCc4ccncc4)nccc3[nH]2)c1 [MMV032967] | 79.58% | 75.35% | – |
| Cc1nnc(NC(=O)c2cn(-c3ccccc3)nc2-c2ccccc2C)o1 [MMV020320] | 47.21% | 0.21% | – |
| Brc1c(-c2ccc3c(c2)OCO3)nc2ncccn12 [MMV676377] | 78.14% | 74.59% | – |

| SMILES | Relative Bioluminescence (%) (2 µM compound) | Relative Bioluminescence (%) (10 µM compound) | also measured |
| --- | --- | --- | --- |
| COc1cc(CN2CCC3(C=Cc4ccccc43)CC2)cc2c1OCO2 [MMV688941] | 78.23% | 74.74% | – |
| CO[C@H]1/C=C/O[C@@]2(C)Oc3c(C)c(O)c4c(O)c(c(/C=N/N5CCN(C)CC5)c(O)c4c3C2=O)NC(=O)/C(C)=C\C=C\[C@H](C)[C@H](O)[C@@H](C)[C@@H](O)[C@@H](C)[C@H](OC(C)=O)[C@@H]1C [MMV688775, Rifampicin, reference compound] | – | – | viability at 2 µM [1]: 47.6%; viability at 10 µM [2]: 2.74% |
| CC(C(=O)N1CCCC1)N1CCN(S(=O)(=O)c2ccc(C(C)(C)C)cc2)CC1 (stereo not drawn) [MMV020291] | 117.25% | 111.14% | – |
| Cc1ccc(S(=O)(=O)Nc2ccc(CN3CCN(C(=O)c4cccc(C#N)c4)CC3)cc2)cc1 [MMV689028] | 54.14% | 72.62% | – |
| O=C(Nc1n[nH]c(=S)s1)c1cc(Br)ccc1Cl [MMV676492] | 60.28% | 23.83% | – |
| Cc1ccccc1C(=O)N1NC(=Nc2ccccc2)SC1(C)C [MMV688771] | 70.08% | 37.89% | – |
| O=C(NCc1ccoc1)N1CCN(Cc2ccc3c(c2)OCO3)CC1 [MMV688553] | 90.94% | 98.31% | – |
| O=C(c1ccc(NCCO)cc1)C1C[C@H]1c1ccc(Cl)cc1 (stereo partly drawn) [MMV676877] | 100.77% | 116.30% | – |
| O=C(C1CCN(c2cc(-n3cccc3)ncn2)CC1)N1CCc2ccccc2C1 [MMV687172] | 73.27% | 54.36% | – |
| CC(C)(CN)c1nc(-c2ccc(Cl)c(O)c2)c(-c2ccnc(N)n2)[nH]1 [MMV030734] | 80.21% | 87.08% | – |
| O=C(NC1CCCCC1)N1CCN(Cc2ccc3c(c2)OCO3)CC1 [MMV676444] | 89.21% | 81.76% | – |
| CCCCN(CCCC)c1c(C#N)cc(S(=O)(=O)Nc2ccccc2)cc1C#N [MMV688467] | 6.98% | 2.46% | EC50: 1.65 µM |
| OCc1ccc(-c2cncc(Nc3cccc(Cl)c3)c2)cc1 [MMV026468] | 116.14% | 104.46% | – |
| FC(F)(F)c1ccc(N(c2cccnc2)C2CCN(c3ccc(C(F)(F)F)cn3)CC2)cc1 [MMV689243] | 34.53% | 8.50% | – |
| NCCC[C@](N)(C(=O)O)C(F)F [MMV001625, α-Difluoromethylornithine, reference compound] | 69.72% | 81.23% | – |
| CC(=O)N1CCc2cc3nc(C)cc(C)c3cc21 [MMV054312] | 120.77% | 116.16% | – |
| COc1cccc(OC)c1C(=O)Nc1ccc(Cl)c(-c2nc3ccccc3s2)c1 [MMV676472] | 106.46% | 93.04% | – |
| c1ccc(Oc2ccc(-c3cncc(-c4ccc5[nH]ccc5c4)n3)cc2)cc1 [MMV688178] | 91.24% | 94.95% | – |
| COCC(C)NC(=O)CSc1ncnc2sc(-c3ccccc3)cc12 (stereo not drawn) [MMV676536] | 84.93% | 103.25% | – |
| Cn1ccnc1CNCCS(=O)(=O)c1cccc(Nc2ccc(-c3cccc(F)c3)cn2)c1 [MMV688466] | 108.11% | 117.26% | – |
| CCOc1ccc2cc(-c3nn(CC4CCN(C)CC4)c4ncnc(N)c34)ccc2c1 [MMV688854] | 92.07% | 66.13% | – |
